Results as given in the METLIN SMRT retention time set (Domingo-Almenara et al. 2019).

Assay: gradient 5% acetonitrile 3 min, to 50% in 2 min, to 85% in 15 min, held 3 min, 100 µL/min
Conditions: column: Zorbax Extend-C18 2.1 x 50 mm; eluents: water / acetonitrile, 0.1% formic acid
Summary of the method: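 Retention time was recorded from adduct peaks, which were picked computationally and each inspected manually. Pure standards ran in mixtures of ~100 molecules on HPLC coupled to a quadrupole time-of-flight mass spectrometer, in positive and negative ionization mode, through a Zorbax Extend-C18 column (2.1 × 50 mm, 1.8 μm) at 100 μL/min. Eluents were water and acetonitrile, each with 0.1% formic acid.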

Row | RP-LC retention time [s] | Compound
1 | 1200 | COc1ccc(-n2c(=O)c(C(=O)Nc3ccc4c(c3)OCO4)c(O)c3cccnc32)cc1
2 | 607 | CCn1c(CN(C)C(=O)Nc2ccc3c(c2)OCO3)nc2cc(C(=O)N(C)C)ccc21
3 | 1080 | CCCCNC(=O)c1cn(CC)nc1S(=O)(=O)N1CCN(c2ccccc2OCC)CC1
4 | 840 | Cn1nc(CNC(=O)c2ccc(Br)cc2)c2ccccc21
5 | 865 | COc1ccc(NC(=O)Cn2c(C)cc(-c3nnc(-c4ccco4)o3)c2C)cc1F
6 | 601 | CC(C)n1ccnc(N2CCOCC2)c1=O
7 | 822 | CC(C)c1noc(-c2ccn3c(CC(=O)N4CCc5ccccc5C4)nnc3c2)n1
8 | 812 | Cn1ncc2c3ccccc3n(CCCC(=O)NCc3ccccc3F)c2c1=O
9 | 599 | O=C(NCc1ccccc1C(F)(F)F)c1ccc2c(c1)ncn2CCN1CCCC1
10 | 712 | CCC(C)NC(=O)N1CC(Oc2ccc(-c3nc(-c4ccccc4)no3)cc2)C1 (stereo not given)
11 | 618 | Cc1cccc(NC(=O)CSc2nnc(NC(=O)CN(C)S(C)(=O)=O)s2)c1C
12 | 760 | O=C(NC1CCCC1)C1CC(=O)N(c2ccc3c(c2)CCN3C(=O)C2CCC2)C1 (stereo not given)
13 | 984 | O=C(CCc1c[nH]c2ccccc12)N1CCc2cc(-c3ccno3)ccc21
14 | 743 | N#Cc1cccc(S(=O)(=O)N2CCC(c3cc(N)on3)CC2)c1
15 | 963 | Cc1cc(C)cc(Oc2nccn3c(=O)n(CC(=O)Nc4ccccc4Cl)nc23)c1
16 | 840 | CCc1nc2cc(N3CCC(C(=O)NCc4cccc(F)c4)CC3)cnc2nc1CC
17 | 832 | O=C(Nc1ccc2c(c1)OCCO2)c1cn(-c2cc(N3CCSCC3)ncn2)cn1
18 | 878 | COc1ccc2[nH]cc(CCNC(=O)c3cc(Cl)ccc3Cl)c2c1
19 | 910 | Cc1sc(NC(=O)CC(C)C)nc1-c1ccc2c(c1)N(C)C(=O)CO2
20 | 1040 | CCC(c1cccs1)N1C(=O)[C@H]2CN(S(=O)(=O)c3cc(F)cc(F)c3)C[C@H]2C1=O (stereo not given in full)
21 | 742 | CCC(C)Nc1nc2c(c(=O)n(C)c(=O)n2C)n1C (stereo not given)
22 | 736 | O=C(Nc1cccc(F)c1)C1CCN(S(=O)(=O)c2ccc3[nH]c(=O)ccc3c2)CC1

Row | RP-LC retention time [s] | Compound
23 | 699 | CCc1cc(=O)n(CC(=O)Nc2ccc(OC)cc2)c(N2CCOCC2)n1
24 | 704 | CCOc1ccc(NC(=O)NCCc2cn(CC)c3ncccc23)cc1
25 | 1000 | CCOC(=O)C1CCN(c2cc(-n3nc(C)cc3C)ncn2)CC1
26 | 865 | COc1cccc(NC(=O)Cn2nc3c(Oc4ccccc4Cl)nccn3c2=O)c1
27 | 642 | CCCNS(=O)(=O)c1cc2n(c1)CCCN(CC)C2=O
28 | 696 | CSc1cccc(NC(=O)Cn2cnc3nc(N4CCC(C(=O)NC5CC5)CC4)sc3c2=O)c1
29 | 712 | CC(Oc1ccc2c(c1)OCO2)C(=O)NCCn1nc(-c2cccs2)ccc1=O (stereo not given)
30 | 752 | CN1CCN(CC/C=C2/c3ccccc3Sc3ccc(S(=O)(=O)N(C)C)cc32)CC1
31 | 806 | O=C(Nc1ccccc1F)N1CCC(n2cnc3ccc(Cl)cc3c2=O)CC1
32 | 1070 | COc1c(C(=O)NCc2ccc3c(c2)OCO3)sc2cc(Cl)ccc12
33 | 1020 | Cc1noc(C)c1-c1ccc(S(=O)(=O)Nc2ccc(C(F)(F)F)cc2)cc1
34 | 644 | CNC(=O)C1CCCN(c2nc3ncn(CC(=O)Nc4cc(F)ccc4C)c(=O)c3s2)C1 (stereo not given)
35 | 749 | Cc1ncsc1C1N(C2CCN(C(=O)Nc3ccccc3)CC2)C(=O)C12CCCC2 (stereo not given)
36 | 784 | Cc1ccc(-c2cc(C(N)=O)c3ccccc3n2)cc1
37 | 637 | Cc1cc(C(=O)Nc2ccc3c(c2)CCC(=O)N3)no1
38 | 1010 | CCOc1ccc(CCNC(=O)c2cc(S(=O)(=O)N3CCCCC3)c(C)n2C)cc1OCC
39 | 659 | COc1ccc(C(=O)N2CCC(c3cc(N)on3)CC2)cc1F
40 | 716 | Cc1ccc(F)cc1NS(=O)(=O)c1cc2n(c1)CCCN(C)C2=O
41 | 748 | COc1ccc(-c2nc3ccc(Cl)cn3c2Nc2ccc3c(c2)OCO3)cc1
42 | 712 | O=C(CC1CCN(C(=O)Nc2ccc3c(c2)OCO3)CC1)N1CCCCC1
43 | 657 | CC(C)CCN(CC(=O)N1CCNCC1)C(=O)c1ccc(Br)cc1
44 | 943 | CCCn1cc(S(=O)(=O)NCc2cccc(C)c2)c2cccnc21

Row | RP-LC retention time [s] | Compound
45 | 1110 | C=CCn1c(=O)c2ccccc2n(Cc2nc(-c3cccc(C(F)(F)F)c3)no2)c1=O
46 | 783 | CCc1ccc(CNC(=O)Cn2ccc3c(=O)n(CC)c(=O)n(CC)c32)cc1
47 | 583 | OC[C@H]1O[C@@H](n2cnc3c(NC4CCCCC4)ncnc32)C(O)[C@H]1O (stereo not given in full)
48 | 957 | O=C(Nc1ccccc1)c1n[nH]c2c1CCCCCC2
49 | 570 | COc1ccc(NC(=O)c2cn3c(n2)CCCC3)cc1OC
50 | 746 | Cc1sc2ccn(C)c(=O)c2c1C(=O)N1CCN(c2ccc(F)cc2)CC1
51 | 614 | COc1ccc(CNC(=O)c2cn3cc(C)ccc3n2)cc1OC
52 | 734 | CC1=C(C(=O)Nc2cc3cn[nH]c3cc2F)C(c2ccc(C(F)(F)F)cc2)CC(=O)N1 (stereo not given)
53 | 609 | COCCC(=O)Nc1ccc2c(c1)CCC(=O)N2C
54 | 740 | COCCn1nnnc1C1CC2(CCOCC2)C(=O)N1Cc1cc(F)cc(F)c1 (stereo not given)
55 | 979 | O=c1cc(-c2cccnc2)oc2c1ccc1ccccc12
56 | 776 | Cc1ccc(-c2cnn3c(N4CCN(c5cccc(C)n5)CC4)cc(C)nc23)cc1
57 | 935 | CCc1ccc(C2=C(C)C(N3CCCN(C(=O)C(C)(C)CC)CC3)=NS2(=O)=O)cc1
58 | 814 | Cn1c(N2CCC(C(=O)N3CCN(c4cccc(C(F)(F)F)c4)CC3)CC2)cc(=O)n(C)c1=O
59 | 935 | Cc1cc(N2CCCCC2)nc(N2CCN(S(=O)(=O)c3ccc(-c4ccccc4)cc3)CC2)n1
60 | 732 | CC(C)n1cnnc1-c1nn(C)c2c1CN(C(=O)CC1CCCC1)CC2
61 | 806 | O=C(NCCc1csc(-c2ccccc2)n1)C1CCN(C(=O)COc2ccccc2)CC1
62 | 1040 | Cc1ccc(-n2c(N3CCCC(C(=O)Nc4ccc(F)c(C)c4)C3)nc3ccsc3c2=O)cc1 (stereo not given)
63 | 805 | Cn1c(=O)n([C@H]2CCN(S(=O)(=O)c3ccc(F)cc3)C2)c2ncccc21
64 | 595 | Cn1cc(CCN2CCC(C(=O)NCc3cccs3)CC2)c2cccnc21
65 | 988 | CCOC(=O)c1noc2ncnc(N3CCCc4ccccc43)c12
66 | 946 | O=C(CSc1nnnn1-c1ccccc1)Nc1ncc(Cc2ccccc2Cl)s1

Row | RP-LC retention time [s] | Compound
67 | 780 | O=C(Cc1nnc(-c2ccsc2)o1)N1CCc2ccccc2C1
68 | 604 | O=C(NC1CCCCC1)C1CCCN(c2ccncc2)C1 (stereo not given)
69 | 1170 | Cc1ccc(NC(=O)Cn2nc(N3CCCCCC3)c3ccccc3c2=O)cc1F
70 | 728 | CN(CC1CCOC1)C(=O)Nc1ccc(Cl)cc1F (stereo not given)
71 | 773 | Cc1cccc(S(=O)(=O)N2CC(F)(F)C[C@H]2CN2CCc3ccccc3C2)c1
72 | 1140 | CCOc1ccc(-c2noc(Cc3nnc(-c4ccc(C)c(F)c4)o3)n2)cc1
73 | 996 | CCOc1ccc(N2C(=O)C3N=NN(Cc4nc(-c5ccccc5Cl)no4)C3C2=O)cc1 (stereo not given)
74 | 719 | COc1cccc(CNC(=O)C(=O)NCC2CCN(C(=O)NC(C)(C)C)CC2)c1
75 | 939 | Cc1[nH]c(C(=O)N2CCC(CC(=O)N3CCN(c4ccccc4)CC3)CC2)c(C)c1C(=O)OC(C)C
76 | 756 | COc1ccc2[nH]cc(CCNC(=O)Cn3nc4c(cc3=O)CCCCC4)c2c1
77 | 799 | CCc1nc2cc(N3CCC(C(=O)NCc4ccc5c(c4)OCO5)CC3)cnc2nc1CC
78 | 904 | CCOC(=O)CCC(=O)Nc1cccc2ccc(OC)nc12
79 | 595 | O=C(c1nc2ncccn2n1)N1CCCn2cc(-c3ccccc3)nc21
80 | 613 | CN1C(=O)c2cccn2CC1C(=O)NCc1ccco1 (stereo not given)
81 | 607 | CC(C(=O)NCCN1CCCC1)n1c2ccccc2c2cnn(C)c(=O)c21 (stereo not given)
82 | 727 | NC(=O)c1ccc2c(c1)S(=O)(=O)c1ccccc1C2=O
83 | 895 | CN(CC1(C)CCOCC1)S(=O)(=O)c1cccc(F)c1
84 | 869 | COc1cccc(OCC(=O)N2CC(=O)Nc3ccccc32)c1
85 | 1000 | Cc1ccc(Cn2nc3ccc(S(=O)(=O)N4CCSCC4)cn3c2=O)cc1C
86 | 721 | O=c1n(Cc2ccccc2)nc2c(S(=O)(=O)N3CCOCC3)cccn12
87 | 895 | COc1ccc2c(c1)CCN(C(=O)c1csc(-n3cccc3)n1)C2
88 | 1280 | Cc1ccc(-c2noc(Cn3ncn4nc(-c5ccc(Br)cc5)cc4c3=O)n2)cc1

Row | Compound | RP-LC retention time [s]
89 | COc1cc(OC)cc(C(=O)N2CCC3(C2)C(=O)Nc2ccc(OC)cc23)c1 (stereo not given) | 710
90 | O=S1(=O)N(Cc2cccc(F)c2)CCCN1Cc1ccccc1Cl | 1180
